Measured values taken from patent US6653286B1, “Gonadotropin releasing hormone antagonist” (Akzo Nobel NV, priority 1997, dated 2003).
Square brackets hold non-standard residues; d marks the D form. Peptide text beside a SMILES is read from it. d(hArg(Et2)) = CCN=C(NCC)NCCCC[C@@H](N)C(=O)O; hArg(Et2) = CCN=C(NCC)NCCCC[C@H](N)C(=O)O; dPhe(4-Cl) = N[C@H](Cc1ccc(Cl)cc1)C(=O)O; d2Nal = N[C@H](Cc1ccc2ccccc2c1)C(=O)O; d3Pal = N[C@H](Cc1cccnc1)C(=O)O

Legend:
premature LH surges = assay: phase II double-blind dose-finding study of ganirelix in women undergoing controlled ovarian hyperstimulation with recFSH; format: in vivo, human
Experimental: In order to establish the minimum effective dose of ganirelix to prevent premature LH surges in women undergoing COH with recombinant FSH, a double-blind dose-finding study was performed with 6 test doses ranging between 2 mg and 0.0625 mg ganirelix.
This study was a phase II, multi-centre, double-blind, randomized, dose-finding study to assess the efficacy of the GnRH-antagonist ganirelix to prevent premature LH surges in women undergoing controlled ovarian hyperstimulation with recFSH. The dosages of ganirelix are administered by one daily SC administration.
RecFSH treatment started on day 2 of the menstrual cycle (treatment day -5) by a once daily SC injection. From treatment day -5 through day -1 the dose of recFSH was fixed at 150 IU daily. After 5 days of recFSH treatment (day 7 of the menstrual cycle), ganirelix treatment was started by daily SC administration. Treatment continued until and including the last day of recFSH administration. During ganirelix treatment, the dose of recFSH was adjusted depending on the individual ovarian response as assessed by daily ultra sonographic scan (USS). As soon as at least 3 folicles ≧17 mm measured by USS were observed, hCG was administered for ovulation induction. About 30-36 hours thereafter oocyte pick-up was performed followed by in vitro fertilization (IVF) with or without intracytoplasmic sperm injection (ICSI). No more than 3 embryos were replaced.
If during ganirelix treatment a premature LH rise occurred e.g. at least one value of serum LH ≧15 IU/L according to the local LH immunoassay the investigator canceled the cycle or tried to rescue the cycle by giving hCG prematurely. In addition, the investigator notified the sponsor about the occurrence of the LH rise and the central laboratory was requested to confirm the LH rise was ≧10 IU/L according to the central LH immunoassay. Subsequently, all data of such subject with a premature LH rise were forwarded to an Independent Advisory Committee which was installed in order to advice on stopping a treatment arm in case of LH rises during ganirelix treatment.
During the study, some investigators informed the sponsor on one or more cases of extremely low serum LH and failing estradiol concentrations as well as follicle growth arrest after starting ganirelix treatment. For this reason the External Independent Advisory Committee was requested to review all clinical data available in order to evaluate whether these observations were dose related and whether, in their opinion, there was reason to stop one or more treatment arms.
In addition, the Independent Advisory Committee reviewed all rises of LH (≧15 IU/L according to the local LH immunoassay and ≧10 IU/L according to the central LH immunoassay) during ganirelix treatment. Based on their evaluation the External Committee advised the sponsor to stop the highest (2 mg) and lowest (0.0625 mg) treatment dose of ganirelix. The study was completed for the other dosage groups.
In total 333 subjects started recFSH treatment and 332 subjects started ganirelix treatment. Because of major protocol violation 3 subjects were excluded from the analysis. The final number of patients per dosing group are included in Table 1.

pituitary-gonadal axis = details: cited from earlier work

Serum ganirelix concentration versus dose (premature LH surges; 0.0625 mg to 2 mg daily SC): increased in a dose-proportional manner
miscarriage rate (premature LH surges; 2 mg dose group): 13%
SMILES: CCN=C(NCC)NCCCC[C@H](NC(=O)[C@H](CC(C)C)NC(=O)[C@@H](CCCCNC(=NCC)NCC)NC(=O)[C@H](Cc1ccc(O)cc1)NC(=O)[C@H](CO)NC(=O)[C@@H](Cc1cccnc1)NC(=O)[C@@H](Cc1ccc(Cl)cc1)NC(=O)[C@@H](Cc1ccc2ccccc2c1)NC(C)=O)C(=O)N1CCC[C@H]1C(=O)N[C@H](C)C(N)=O [ganirelix, N-Acetyl-3-(2-naphtyl)-D-alanyl-4-chloro-D-phenylalanyl-3-(3-pyridyl)-D-alanyl-L-seryl-L-tyrosyl-N^ω,N^ω-diethyl-D-homoarginyl-L-leucin-N^ω,N^ω-diethyl-Lhomoarginyl-L-propyl-D-alanylamide acetate] (Ac-[d2Nal][dPhe(4-Cl)][d3Pal]SY[d(hArg(Et2))]L[hArg(Et2)]P[dA]-NH2)
Median serum E2 (estradiol) at the day of hCG (= last day of ganirelix) (premature LH surges; 0.0625 mg daily SC): 1475 pg/mL
Median serum LH at the day of hCG (= last day of ganirelix) (premature LH surges; 0.0625 mg daily SC): 3.56 IU/L
Incidence of LH rises (premature LH surges; 0.0625 mg daily SC, N = 31, number of subjects (%)): 5 (16%)
Median serum E2 (estradiol) at the day of hCG (= last day of ganirelix) (premature LH surges; 0.125 mg daily SC): 1130 pg/mL
Median serum LH at the day of hCG (= last day of ganirelix) (premature LH surges; 0.125 mg daily SC): 2.46 IU/L
Incidence of LH rises (premature LH surges; 0.125 mg daily SC, N = 65, number of subjects (%)): 6 (9.2%)
Median serum E2 (estradiol) at the day of hCG (= last day of ganirelix) (premature LH surges; 0.25 mg daily SC): 1160 pg/mL
Median serum LH at the day of hCG (= last day of ganirelix) (premature LH surges; 0.25 mg daily SC): 1.73 IU/L
Incidence of LH rises (premature LH surges; 0.25 mg daily SC, N = 69, number of subjects (%)): 1 (1.4%)
Median serum E2 (estradiol) at the day of hCG (= last day of ganirelix) (premature LH surges; 0.5 mg daily SC): 823 pg/mL
Median serum LH at the day of hCG (= last day of ganirelix) (premature LH surges; 0.5 mg daily SC): 1.02 IU/L
Incidence of LH rises (premature LH surges; 0.5 mg daily SC, N = 69, number of subjects): 0
Median serum E2 (estradiol) at the day of hCG (= last day of ganirelix) (premature LH surges; 1 mg daily SC): 703 pg/mL
Median serum LH at the day of hCG (= last day of ganirelix) (premature LH surges; 1 mg daily SC): 0.57 IU/L
Incidence of LH rises (premature LH surges; 1 mg daily SC, N = 65, number of subjects): 0
Median serum E2 (estradiol) at the day of hCG (= last day of ganirelix) (premature LH surges; 2 mg daily SC): 430 pg/mL
Median serum LH at the day of hCG (= last day of ganirelix) (premature LH surges; 2 mg daily SC): 0.34 IU/L
Incidence of LH rises (premature LH surges; 2 mg daily SC, N = 30, number of subjects): 0
vital pregnancy rate per attempt (premature LH surges; 2 mg dose group, per attempt (those who started hormonal treatment)): 3.8%
vital pregnancy rate per transfer (premature LH surges; 2 mg dose group, per transfer (those who had embryo transfer)): 4.3%
suppression of the pituitary-gonadal axis (pituitary-gonadal axis; 1 mg or 2 mg daily SC for 8 consecutive days, reproductive age women): rapid, profound, reversible suppression
maximal mean LH suppression (pituitary-gonadal axis; 8 h after the first injection, 1 mg or 2 mg daily SC): approximately 60%
